Patent US6906205B2, “Spiro and dispiro 1,2,4-trioxolane antimalarials” (Medicines for Malaria Venture MMV, priority 2002, dated 2005)
In brackets after ≈: the same amount, converted by molar mass.

Assays:
[1] = tested on: Schistosoma mansoni 21-day-old schistosomules; experiment: effect on 21-day-old schistosomules in mice; format: in vivo; conditions: single 200 mg/kg per os, female mice
Experimental: All groups were killed 4 weeks after treatment and the liver and intestine were removed and separated. The liver and intestine were compressed and alive male and female worms could be seen and counted. The effect of the compounds was evaluated by mean total and female worm burden.

[2] = tested on: ANKA strain of Plasmodium berghei; experiment: single dose ED50/ED90/ED99 determinations in infected mice; format: in vivo; conditions: single dose po in SSV, mice, percent reduction in parasitemia on day three post-infection
Experimental: In the single dose ED50/ED90/ED99 determinations, Moro SPF or NMRI mice (group of three) infected with the ANKA strain of Plasmodium berghei were treated on day one post-infection. […] The SSV consists of 0.5% w/v CMC, 0.5% v/v benzyl alcohol, 0.4% v/v Tween 80, and 0.9% w/v sodium chloride in water. Antimalarial activity was measured by percent reduction in parasitemia on day three post-infection. The ED50/ED90 values were calculated by nonlinear fitting.

[3] = tested on: ANKA strain of P. berghei; experiment: single dose STI in vivo screen in infected mice; design: species or system Plasmodium berghei
Outline: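 Groups of 3-5 Moro SPF or NMRI mice infected with the ANKA strain of P. berghei received a single dose of trioxolane on day one post-infection. The compound was given in 3% ethanol and 7% Tween 80 or in SSV (0.5% w/v CMC, 0.5% v/v benzyl alcohol, 0.4% v/v Tween 80, 0.9% w/v sodium chloride in water). Antimalarial activity was scored as percent reduction in parasitemia on day three and as survival time versus untreated controls. Survival to day 30 counted as cure.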

P. berghei ANKA strain [4] = experiment: treatment: 3x3 mg/kg and 3x1 mg/kg po divided doses in infected mice; format: in vivo, Plasmodium berghei; conditions: for Activity (%) p.o. SSV: percent reduction of parasitemia day 4
Experimental: (§1) Moro NMRI male mice (Fü Albino specific pathogen free) weighing 18±2 g were infected intravenously (i.v.) with 2×10^7 P. berghei ANKA strain-infected erythrocytes from donor mice on day 0 of the experiment. From donor mice with circa 30% parasitemia, heparinized blood was taken and diluted in physiological saline to 10^8 parasitized erythrocytes per ml. An aliquot (0.2 ml) of this suspension was injected i.v. into experimental and control groups of mice. In untreated control mice, parasitemia rose regularly to 40 to 50% by day 3 post-infection and 70 to 80% by day 4 post-infection. The mice died between days 5 and 7 post-infection. Throughout the experiments, mice were kept in groups of three or five animals in Makrolon type II cages in an air-conditioned animal room at 22 to 23° C. A diet with p-aminobenzoic acid (PABA) of 45 mg (NAFAG FUTTER© food N^o 9009 PAB-45) per kg of body weight, and tap water is available ad libitum.
(§2) OZ compounds were prepared at an appropriate concentration, either as a solution or a suspension containing SSV (0.5% w/v CMC, 0.5% v/v benzyl alcohol, 0.4% v/v Tween 80, and 0.9% w/v sodium chloride in water). They were administered per os (p.o.) in a total volume of 0.01 ml per gram of mouse. The activity of the compound was determined by a variety of methods outlined in subsequent sections. Survival time was also recorded, and survival to day 30 post-infection was considered to be a cure.
The second experiment consists of administration of divided 3×3 mg/kg and 3×1 mg/kg po doses administered on days 1, 2, and 3 post-infection. On day 4 post-infection, blood smears of all animals were prepared and stained with Giemsa. Parasitemia was determined microscopically, and the difference between the mean value of the control group (taken as 100%) and those of the experimental groups was calculated and expressed as percent reduction. Compounds were administered orally in the SSV vehicle.

[5] = tested on: Schistosoma mansoni adult schistosomes (49-day-old); experiment: effect on adult schistosomes (49-day-old) in mice; format: in vivo; conditions: single 400 mg/kg per os
Experimental: Mice were infected with 100 Schistosoma mansoni cercariae […]. Each group was treated per os with OZ compounds at single doses of 200, 400, and 600 mg/kg. […] All groups were killed 4 weeks after treatment and the liver and intestine were removed and separated. The liver and intestine were compressed and alive male and female worms could be seen and counted.

[6] = tested on: P. falciparum K1 strain (Thailand resistant to chloroquine); experiment: semiautomated microdilution assay, [3H]-hypoxanthine incorporation, K1 strain; format: cell-based, Plasmodium falciparum; conditions: K1 strain, 72 h incubation
Outline: (§3)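 Asynchronous stock cultures → intraerythrocytic forms; semiautomated microdilution; IC50 by logit regression.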

P. berghei ANKA strain [7] = experiment: prophylactic activity, single 100 mg/kg po dose before infection; format: in vivo, Plasmodium berghei; conditions: for Prophylactic Activity (%): reduction of parasitemia day 3 post-infection
Experimental: as §1, §2
Prophylactic activities of the compounds were compared after administering po single dose of 100 mg/kg to different groups of five animals at various times before infection. All groups including an untreated control group, were then infected at the same time. Parasitemia was determined for each animal on day 3 post-infection, and percent of reduction of the level of parasitemia compared to levels for animals given no drug is determined.

[8] = tested on: P. falciparum NF54 strain (sensitive to standard antimalarials); experiment: semiautomated microdilution assay, [3H]-hypoxanthine incorporation, NF54 strain; format: cell-based, Plasmodium falciparum; conditions: NF54 strain, 72 h incubation
Outline: as §3

P. berghei ANKA strain [9] = experiment: treatment: 3x10 mg/kg p.o. divided dose vs 1x30 mg/kg po single dose in infected mice; format: in vivo, Plasmodium berghei; conditions: 3 × 10 mg/kg days 1, 2, 3 post-infection; for Activity (%) p.o. SSV: percent reduction of parasitemia day 4
Experimental: Moro NMRI male mice (Fü Albino specific pathogen free) weighing 18±2 g were infected intravenously (i.v.) with 2×10^7 P. berghei ANKA strain-infected erythrocytes from donor mice on day 0 of the experiment. From donor mice with circa 30% parasitemia, heparinized blood was taken and diluted in physiological saline to 10^8 parasitized erythrocytes per ml. An aliquot (0.2 ml) of this suspension was injected i.v. into experimental and control groups of mice. […] Throughout the experiments, mice were kept in groups of three or five animals in Makrolon type II cages in an air-conditioned animal room at 22 to 23° C.
They were administered per os (p.o.) in a total volume of 0.01 ml per gram of mouse. The activity of the compound was determined by a variety of methods outlined in subsequent sections. Survival time was also recorded, and survival to day 30 post-infection was considered to be a cure.
The first experiment conducted consisted of administration of a divided 3×10 mg/kg p.o. dose administered on days 1, 2, and 3 post-infection vs. a single 1×30 mg/kg po dose administered on day 1 post-infection. On day 4 post-infection, blood smears of all animals were prepared and stained with Giemsa. […] Compounds were administered orally in the SSV vehicle.

[10] = 3 × 1 mg/kg days 1, 2, 3 post-infection
[11] = 3 × 3 mg/kg days 1, 2, 3 post-infection

SMILES | % reduction of schistosomule growth at day 21 after per os application of 200 mg/kg, TWR (%) [1] | Survival (days) p.o. SSV (P. berghei ANKA strain [4]; [10]) | Activity (%) p.o. SSV (P. berghei ANKA strain [4]; [10]) | Survival (days) p.o. SSV (P. berghei ANKA strain [4]; [11]) | Activity (%) p.o. SSV (P. berghei ANKA strain [4]; [11]) | Survival (days) p.o. SSV (P. berghei ANKA strain [9]) | Activity (%) p.o. SSV (P. berghei ANKA strain [9]) | also measured
NC[C@H]1CC[C@]2(CC1)OOC1(O2)C2CC3CC(C2)CC1C3 (stereo partly drawn) [OZ209] | 85% | – | – | – | – | – | – | ED90 [2]: 1.4 mg/kg; ED99 [2]: 3.0 mg/kg; Survival (days) SSVpo ([3]; single po dose in SSV, untreated control 5.6 ± 0.3): 10.0 days; activity (percent reduction of parasitemia) (P. berghei ANKA strain [4]; 3×1 mg/kg po on days 1, 2, 3 post-infection, SSV): greater than 99%
NCC(=O)NC[C@H]1CC[C@]2(CC1)OO[C@]1(O2)C2CC3CC(C2)CC1C3 [OZ271] | 88% | – | – | – | – | – | – | % reduction of adult worms growth at day 49 after per os application of 400 mg/kg, TWR (%) [5]: 0%; adult worms at day 49, per os 400 mg/kg, DEAD WORM (%) [5]: 6%; IC50 (ng/ml) K1 [6]: 0.36 ng/mL (≈ 1.03 nM); % reduction of schistosomule growth at day 21 after per os application of 200 mg/kg, FWR (%) [1]: 86%; Survival (days) 10 mg/kg SSV po ([3]; single 10 mg/kg po in SSV): 8.7 days; duration of prophylactic protection (P. berghei ANKA strain [7]; single 100 mg/kg po before infection): 3 days; IC50 (ng/ml) NF54 [8]: 0.29 ng/mL (≈ 0.827 nM)
CC(C)(N)C(=O)NCC1CCC2(CC1)OOC1(O2)C2CC3CC(C2)CC1C3 (stereo not drawn) [compound 281] | – | 13 days | 92% | 12.4 days | 100% | – | – | Prophylactic Activity (%) (P. berghei ANKA strain [7]; single 100 mg/kg po 24 h before infection): 99.23%; Prophylactic Activity (%) (P. berghei ANKA strain [7]; single 100 mg/kg po 48 h before infection): 45%; Prophylactic Activity (%) (P. berghei ANKA strain [7]; single 100 mg/kg po 72 h before infection): 8%; Prophylactic Activity (%) (P. berghei ANKA strain [7]; single 100 mg/kg po at 0 h): 100%
CS(=O)(=O)O.c1cc(OCC2CCC3(CC2)OOC2(O3)C3CC4CC(C3)CC2C4)ccn1 (stereo not drawn) [compound 301] | – | 8.8 days | 58% | 23 days | 100% | >30 days | 100% | –
Cc1ccc(S(=O)(=O)O)cc1.NC1CCC(NC(=O)CC2CCC3(CC2)OOC2(O3)C3CC4CC(C3)CC2C4)CC1 (stereo not drawn) [compound 315] | – | 12.2 days | 81% | 22 days | 99.99% | >30 days | 100% | –
